{"source": "patent US10538571B2", "about": "“Compositions and methods for neurological diseases” (Coda Biotherapeutics, Inc., priority 2017, dated 2020)", "key": {"[1]": {"molecular_target": "T1, engineered chimeric LGIC receptor SEQ ID NO:41 (as SEQ ID NO:33, further comprising the β1-β2 loop domain from GlyRα1) (Homo sapiens, UniProt P36544, F159M/H163T/I152M/K68T/N69T/Q70M/R155K/V154L/W156N/Y151P)", "T1 construct": "expressed in transfected cells; host or cells: Xenopus oocytes (cDNA injection)", "T1 sequence (P36544 with tags, fused parts or gaps K68T/N69T/Q70M/Y151P/I152M/V154L/R155K/W156N/F159M/H163T)": "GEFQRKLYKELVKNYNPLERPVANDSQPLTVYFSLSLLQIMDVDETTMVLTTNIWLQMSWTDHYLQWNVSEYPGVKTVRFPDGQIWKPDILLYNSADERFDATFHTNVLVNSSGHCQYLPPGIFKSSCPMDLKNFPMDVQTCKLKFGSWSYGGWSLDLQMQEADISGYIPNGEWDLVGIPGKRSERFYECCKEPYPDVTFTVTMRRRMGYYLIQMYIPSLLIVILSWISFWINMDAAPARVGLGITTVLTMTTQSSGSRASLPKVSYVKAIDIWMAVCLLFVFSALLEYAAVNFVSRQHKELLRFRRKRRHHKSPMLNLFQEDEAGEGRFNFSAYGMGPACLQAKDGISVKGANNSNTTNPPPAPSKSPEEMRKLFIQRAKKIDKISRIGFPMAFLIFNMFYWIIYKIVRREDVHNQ", "experiment": "Two electrode voltage clamp currents in Xenopus oocytes expressing the receptor", "assay_type": "cell-based", "conditions": "FIG. 5", "description": "(§1) For Xenopus oocyte studies, injections of cDNAs encoding for ion channels at a final concentration of 0.04 μg/μL were performed using a proprietary automated injection device and receptor expression examined at least two days later. Oocytes were poked with two electrodes and their membrane potential maintained at −80 mV throughout the experiment. All recordings were performed at 18° C. and cells were superfused with OR2 medium containing in mM: NaCl 82.5, KCl 2.5, HEPES 5, CaCl2.2H2O 1.8, MgCl2.6H2O 1, pH 7.4. Recordings progressed if oocytes had sufficiently low holding current, in which case they were then subjected to ligand or test compound application (5-10 s wash intervals), with 100 s of wash in between doses. Currents evoked by acetylcholine or other agonists were recorded using an automated process equipped with standard two electrode voltage clamp configuration (TEVC). Data were captured and analyzed using HiQScreen proprietary data acquisition and analysis software running under Matlab (Mathworks Inc.). Acetylcholine was prepared as a concentrated stock solution (10-1 M) in water and then diluted in the recording medium to obtain the desired test concentration. Nicotine was diluted in water as stock solution (10-1 M), kept frozen and diluted immediately prior to the experiment at the desired concentration. Compounds were prepared as stock solution (10-1M) in OR2 and then diluted in the recording medium to obtain the desired test concentration. Stock solution for Compound-1 was made in OR2 at pH 5 adjusted with HCl. To assess that dilution at the final concentration of this stock solution introduced no significant changes, the pH of the final solution was confirmed using a colorimetric assay (Galietta L. J. V., et al. 2001. FEBS Letters 499: 220-224. Kruger W., et al. (2005). Neuroscience Letters 380: 340-345.)\n(§2) To better understand the impact of the heterologous domains that had been inserted into the channels, the ligand-dependent response profiles of wild type α7-nAChR and various engineered chimeric LGIC receptors to acetylcholine as well as to non-native ligands TC-6987, AZD-0328, and Facinicline/RG3487 were assessed. Receptors were transiently expressed in […] cells and currents were measured on an automated patch clamp system (Fluxion Biosciences) following 1 second addition of drug. Inclusion of a GlyRα1 Cys-loop sequence in the extracellular domain increased the potency of all small molecules on the engineered receptor (leftward shift in EC50) (e.g. SEQ ID NO:35, FIG. 4C vs SEQ ID NO:16, FIG. 4B). […] Inclusion of both the Cys-loop and β1-β2 loop sequences of GlyRα1 in the extracellular domain reduced the sensitivity by about 1 log from that observed with the full Cys-loop sequence alone, but further increased conductance approximately 2-fold and slowed the rate of deactivation of the channel (SEQ ID NO:41, FIG. 4E vs. SEQ ID NO:33, FIG. 4D)."}, "[2]": {"molecular_target": "T2, engineered chimeric LGIC receptor SEQ ID NO:33 (α7-nAChR ligand binding domain with GlyRα1 Cys-loop, GlyRα1 ion pore domain) (Homo sapiens, UniProt P36544, F159M/H163T/I152M/R155K/V154L/W156N/Y151P)", "T2 construct": "expressed in transfected cells; host or cells: Xenopus oocytes (cDNA injection)", "T2 sequence (P36544 with tags, fused parts or gaps Y151P/I152M/V154L/R155K/W156N/F159M/H163T)": "as the sequence (P36544 with tags, fused parts or gaps K68T/N69T/Q70M/Y151P/I152M/V154L/R155K/W156N/F159M/H163T) above, with T46K, T47N, M48Q counted along it", "experiment": "Two electrode voltage clamp currents in Xenopus oocytes expressing the receptor", "assay_type": "cell-based", "description": "as §1, §2"}, "[3]": {"test_system": "spared nerve injury (SNI) model", "experiment": "Spared nerve injury (SNI) model of neuropathic pain, mechanical withdrawal threshold (von Frey, up-down method) after AAV.hSYN-α7-nAChR/GlyRα1 injection", "assay_type": "in vivo, rat", "conditions": "single IP injection", "excerpt": "Eight expression cassettes are constructed using standard molecular biology techniques. All contain a human synapsin-1 (hSYN) promoter linked to engineered chimeric receptors comprising a ligand binding domain of α7-nAChR and a Cys-loop domain and ion pore domain of GlyRα1. Their design is as follows:\nThese cassettes are subcloned into AAV bacmids, purified, transfected into Sf9 insect cells to produce recombinant bacuvlovirus, and then amplified. Sf9 cells are double infected using the amplified recombinant baculovirus containing the hSYN-α7-nAChR/GlyRα1 cassettes and another recombinant baculovirus containing the Rep and AAV6(Y705+731F+T492V) Cap genes to produce recombinant AAV vectors. The viral vectors are purified, viral titer determined using qPCR, and SDS-PAGE used to verify the purity of AAV vectors.\nTo produce mechanical hypersensitivity in a model that mimics a neuropathic pain condition, the spared nerve injury (SNI) model (a validated model of mechanical allodynia) is used (Shields et al., 2003, The Journal of Pain, 4, 465-470). This model is produced by the sectioning of the common peroneal and the sural nerves and isolating the tibial branch. Mechanical withdrawal threshold is assessed by placing rats on an elevated wire-mesh grid and stimulating the plantar surface of the hind paw with von Frey filaments.\nA dorsal hemilaminectomy is made at the level of the lumbar enlargement to expose two segments (about 1.5-2 mm) of lumbar spinal cord, after which the dura mater is incised and reflected. The viral solution is loaded into a glass micropipette (prefilled with mineral oil). The micropipette is connected to a manual micro-injector mounted on a stereotactic apparatus. The viral solution is targeted to the dorsal horn (left side). Along the rostro-caudal axis within the exposed region, 6 injections of 240 nl each are performed, in an equidistant linear fashion. After each injection, 1 min of resting time is observed and then the muscle layer is sutured, the skin closed with staples, and the animals were allowed to recover with heated-pad before they were returned to their home cages. Animals are perfused for histological analysis after the last behavior test.\nThe injection is performed with a borosilicate glass capillary (0.78/1 mm internal/external diameters) pulled to a fine point, attached by polyethylene tubing (0.4/0.8 mm internal/external diameters) to a syringe mounted in a microinjection pump. The needle is mounted on an extended arm of a stereotaxic frame swung to the outside (used to hold and manipulate the needle only). Tubing, syringe, and needle are all filled with water. One microliter air is taken up into the needle followed by 3 μL of the viral vector solution. The needle is loaded separately with this volume for each injection. Animals are anesthetized prior to surgery. Following an incision along the dorsal midline, the L4 and L5 DRG are exposed by removal of the lateral processes of the vertebrae. The epineurium lying over the DRG is opened, and the glass needle inserted into the ganglion, to a depth of 400 μm from the surface of the exposed ganglion. After a 3-minute delay to allow sealing of the tissue around the glass capillary tip, 1.1 μL virus solution was injected at a rate of 0.2 μL/minute. After a further delay of 2 minutes, the needle is removed. The L4 ganglion is injected first followed by the L5 ganglion. The muscles overlying the spinal cord are loosely sutured together with a 5-0 suture and the wound closed. Animals are allowed to recover at 37° C. and received postoperative analgesia.\nRats are first anesthetized and then placed vertically with their head fixed in a stereotaxic frame. An incision is made in the base of the neck to expose the groove in the nuchal crest. An incision is made (1-2 mm) in the cisternal membrane to a depth such that cerebrospinal fluid leaks out. […]"}}, "data": [{"compound": "c1ccc(-c2nnc(O[C@@H]3C4CC5C[C@H]3CN(C5)C4)s2)cc1", "note": "[ABT-126]", "values": [{"measurement": "sensitivity of SEQ ID NO:41 to ligand compared with wild type α7-nAChR", "setting": "[1]", "value": "comparably sensitive"}, {"measurement": "sensitivity of SEQ ID NO:33 to ligand compared with wild type α7-nAChR", "setting": "[2]; Xenopus oocytes, FIG. 5", "value": "approximately as sensitive"}]}, {"compound": "O=C(N[C@@H]1CN2CCC1CC2)c1n[nH]c2ccccc12", "note": "[Facinicline/RG3487]", "values": [{"measurement": "reversal of mechanical hypersensitivity", "setting": "[3]; high dose of ligand, all rats (Chimera 1-8)", "value": "complete reversal"}, {"measurement": "reversal of mechanical hypersensitivity", "setting": "[3]; low dose, rats receiving Chimera 1, 2, 4, 5, 6 and 8", "value": "complete reversal"}, {"measurement": "reversal of mechanical hypersensitivity", "setting": "[3]; low dose, rats receiving Chimera 3 and 7", "value": "partial reversal"}, {"measurement": "EC50 on SEQ ID NO:41 fold lower (left shifted) than for wild type", "setting": "[1]", "value": "approximately 2 fold"}, {"measurement": "sensitivity of SEQ ID NO:41 compared with SEQ ID NO:33", "setting": "[1]", "value": "less sensitive"}, {"measurement": "fold more sensitive than wild type α7-nAChR", "setting": "[2]; Xenopus oocytes, FIG. 5", "value": "~10", "unit": "fold"}]}, {"compound": "O=C(N[C@@H]1C2CCN(CC2)[C@H]1Cc1cccnc1)c1cc(F)cc(F)c1", "note": "[TC-6987]", "values": [{"measurement": "sensitivity of SEQ ID NO:41 to ligand compared with wild type α7-nAChR", "setting": "[1]", "value": "comparably sensitive"}, {"measurement": "sensitivity of SEQ ID NO:33 to ligand compared with wild type α7-nAChR", "setting": "[2]; Xenopus oocytes, FIG. 5", "value": "approximately as sensitive"}, {"measurement": "agonist activity on SEQ ID NO:33", "setting": "[2]; similar to wild type", "value": "partial agonist activity"}]}, {"compound": "CN1CCCC1c1cccnc1", "note": "(stereo not shown) [nicotine]", "values": [{"measurement": "EC50 on SEQ ID NO:41 fold larger (right shifted) than for wild type", "setting": "[1]", "value": "~7", "unit": "fold"}, {"measurement": "fold less sensitive than wild type α7-nAChR", "setting": "[2]; Xenopus oocytes, FIG. 5", "value": "approximately 2 fold"}]}]}
